Laboratory results taken from patent US20140018750A1, “METHOD AND DEVICE OR PHARMACEUTICAL COMPOSITIONS FOR THE TRANSDERMAL DELIVERY OF MAGNESIUM DIRECTLY TO THE NEUROMUSCULAR JUNCTION FOR THE TREATMENT OF MUSCLE CRAMPING” (priority 2012, published 2014).

Columns and labels:
sciatica = details: Patient Michael, cream composed of aloe combined with 8% by MW of magnesium sulfate

O=S(=O)([O-])[O-].[Mg+2] [magnesium sulfate]
time to relief (sciatica): six
time to relief (muscle cramping; Patient Doris, reoccurring severe muscle cramps in the right foot, liquid solution, 8% by MW of magnesium sulfate, applied to the area): three
time until began to experience relief (muscle cramping; Patient Henry, severe muscle cramps in the upper right arm after exertion, liquid form of 8% by MW of magnesium sulfate applied directly): three
time to relief from both symptoms (muscle cramping; Patient Norma, severe leg cramps with restless leg syndrome, towel soaked in composition with 8% by MW of magnesium sulfate applied to affected area): four
